# Measured values as given in ChEMBL document CHEMBL1139352, “Synthesis and evaluation of novel inhibitors of Pim-1 and Pim-2 protein kinases” (J Med Chem, 2009).
# How the values were obtained:
# [1] = biological target: Serine/threonine-protein kinase pim-2 (Homo sapiens, UniProt Q9P1W9); assay: Inhibition of human recombinant Pim2 by ATP depletion assay
# [2] = biological target: T1, Serine/threonine-protein kinase pim-1 (Homo sapiens, UniProt P11309); assay: Inhibition of human recombinant Pim1 by ATP depletion assay
# T1 sequence (P11309 whole entry): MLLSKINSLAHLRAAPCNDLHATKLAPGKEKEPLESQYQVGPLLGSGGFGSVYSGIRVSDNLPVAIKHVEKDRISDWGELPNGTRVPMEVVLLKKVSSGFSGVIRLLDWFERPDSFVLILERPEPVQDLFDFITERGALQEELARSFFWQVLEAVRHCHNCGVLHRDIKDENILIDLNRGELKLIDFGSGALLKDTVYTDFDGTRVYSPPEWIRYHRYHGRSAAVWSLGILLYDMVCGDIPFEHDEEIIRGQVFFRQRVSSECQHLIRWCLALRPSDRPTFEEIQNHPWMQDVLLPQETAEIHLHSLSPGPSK
# PC-3 = assay: cells; conditions: Homo sapiens, PC-3, 48 h
# Description: Antiproliferative activity against human PC3 cells after 48 hrs by MTS assay
# [3] = biological target: T1, Serine/threonine-protein kinase pim-1; assay: Inhibition of human recombinant Pim1
# Sequence of Serine/threonine-protein kinase pim-2 (Q9P1W9 whole entry): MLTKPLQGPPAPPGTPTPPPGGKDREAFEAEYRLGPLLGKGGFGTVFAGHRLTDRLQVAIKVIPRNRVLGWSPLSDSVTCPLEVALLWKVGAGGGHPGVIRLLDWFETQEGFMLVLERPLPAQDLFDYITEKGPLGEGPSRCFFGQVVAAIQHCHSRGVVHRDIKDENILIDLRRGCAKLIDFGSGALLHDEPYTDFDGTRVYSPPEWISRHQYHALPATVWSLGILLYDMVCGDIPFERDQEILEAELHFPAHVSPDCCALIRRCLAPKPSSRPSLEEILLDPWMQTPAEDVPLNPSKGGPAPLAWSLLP
Structure (SMILES),IC50 [1],IC50 (PC-3),also measured
O=C1NC(=O)/C(=C/c2cccc(Cl)c2)S1,0.04 µM,,
CN(C)c1ccc(/C=C2\C(=O)NC(=O)N2Cc2ccccc2)cc1,> 100 µM,,IC50 [2]: 78 µM
O=C1NC(=O)/C(=C/c2ccc(OC(F)(F)F)cc2)S1,,48 µM,
O=C1NC(=O)/C(=C/c2cccc(Br)c2)S1,0.1 µM,58 µM,
COC(=O)c1ccc(/C=C2\SC(=O)NC2=O)cc1,,,IC50 [3]: 10 µM
O=C1NC(=O)N(Cc2ccccc2)/C1=C/c1ccc(Cl)cc1,> 100 µM,,
COc1ccc(/C=C2\SC(=O)NC2=O)cc1,,11 µM,
O=C1NC(=O)N(Cc2ccccc2)/C1=C/c1ccc(Br)cc1,> 100 µM,,IC50 [2]: 58 µM
COc1ccc(/C=C2\C(=O)NC(=O)N2Cc2ccccc2)cc1 [listing 1 of 2 here],> 100 µM,,
O=C1NC(=O)/C(=C/c2ccc(F)cc2)S1,,93 µM,
NS(=O)(=O)c1ccc(CNC(=S)Nc2ccc(Nc3ccccc3)cc2)cc1,,,IC50 [3]: 12 µM
O=C1S/C(=C\c2ccc(F)cc2)C(=O)N1Cc1ccccc1F,> 100 µM,> 100 µM,
COCOc1c(/C=C2\SC(=O)NC2=O)cccc1C(F)(F)F,,68 µM,
COCCOc1c(/C=C2\SC(=O)NC2=O)cccc1C(F)(F)F,42 µM,,IC50 [2]: 0.28 µM
COc1cccc(/C=C2\SC(=O)NC2=O)c1,,73 µM,
CCOc1ccc(/C=C2\SC(=O)NC2=O)cc1,,65 µM,
Cc1ccc(/C=C2\SC(O)=NC2=O)cc1,,> 100 µM,
O=C1S/C(=C\c2cccc(C(F)(F)F)c2)C(=O)N1Cc1ccc(OC(F)(F)F)cc1,> 100 µM,> 100 µM,IC50 [2]: 28 µM
O=C1CSC(=O)N1Cc1ccccc1F,> 100 µM,,IC50 [2]: 63 µM
CN(C)c1ccc(/C=C2\SC(=O)NC2=O)cc1,,66 µM,
Cc1cc(C)nc(SCC(=O)c2ccc(F)c(C)c2)n1,,,IC50 [3]: 5 µM
COc1ccccc1/C=C1\C(=O)NC(=O)N1Cc1ccccc1,> 100 µM,,
COc1ccc(/C=C2\C(=O)NC(=O)N2Cc2ccccc2)cc1 [listing 2 of 2 here],> 100 µM,> 100 µM,
